pIC50: −log10 of the molar value. Where two headings read alike, the source gives them in different places.
Assays:
MCR-1 = target: T1, MCR-1 (Homo sapiens, UniProt Q01726); test: Melanocortin receptor binding assay, competition with 125I-HP 467, HEK 293 cells expressing hMCR-1; conditions: read-out: MC-1 IC50
T1 construct: expressed in transfected cells; host or cells: HEK 293
In short: (§1)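 Test compounds compete on intact HEK 293 cells carrying hMCR-1 (2×10^4 per tube) or hMCR-4 (4×10^3 per tube), suspended in PBS, 10% calf serum, 1 mM CaCl2.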

MCR-4 = target: T2, MCR-4 (Homo sapiens, UniProt P32245); test: Melanocortin receptor binding assay, competition with 125I-HP 467, HEK 293 cells expressing hMCR-4; conditions: read-out: MC-4 IC50
T2 construct: expressed in transfected cells; host or cells: HEK 293
T2 sequence (P32245 whole entry): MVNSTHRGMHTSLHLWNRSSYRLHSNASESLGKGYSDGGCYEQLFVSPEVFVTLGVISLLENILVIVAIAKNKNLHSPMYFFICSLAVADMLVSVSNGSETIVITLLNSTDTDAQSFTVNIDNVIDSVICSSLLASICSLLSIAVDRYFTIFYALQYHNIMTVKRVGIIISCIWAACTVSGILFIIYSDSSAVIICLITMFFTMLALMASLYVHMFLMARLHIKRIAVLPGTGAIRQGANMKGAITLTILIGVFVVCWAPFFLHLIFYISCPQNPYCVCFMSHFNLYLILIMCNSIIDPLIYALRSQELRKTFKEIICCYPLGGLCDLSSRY
In short: as §1

[1] = TRG 2408 and TRG 2409 libraries, inhibition of 125I-HP 467 binding
[2] = competition with 125I-HP 467, HEK 293 cells expressing MCR-1
[3] = competition with 125I-HP 467, HEK 293 cells expressing MCR-4

T1 sequence (Q01726 whole entry): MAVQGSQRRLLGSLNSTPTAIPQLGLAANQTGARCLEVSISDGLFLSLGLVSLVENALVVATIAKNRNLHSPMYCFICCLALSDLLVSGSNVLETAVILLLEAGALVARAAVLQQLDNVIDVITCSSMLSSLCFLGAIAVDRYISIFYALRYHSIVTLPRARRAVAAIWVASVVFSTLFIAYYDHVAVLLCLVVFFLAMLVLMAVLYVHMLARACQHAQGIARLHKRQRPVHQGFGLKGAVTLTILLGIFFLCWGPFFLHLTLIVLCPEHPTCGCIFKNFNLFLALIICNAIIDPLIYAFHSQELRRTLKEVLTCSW

CNC(CN)CCCN1Cc2ccccc2C(CNC2CCCCC2)C1c1ccc(Cl)cc1Cl (stereo not drawn) [TRG 2408-70]
pIC50 (MCR-1; [1]): 5.84
pIC50 (MCR-4; [1]): 5.60

NCC(N)CCCN1Cc2ccccc2C(CNC2CCCCC2)C1c1ccc(Cl)cc1Cl (stereo not drawn) [TRG 2408-71]
pIC50 (MCR-1; [1]): 5.92
pIC50 (MCR-4; [1]): 5.52

NC[C@H](CCCN1Cc2ccccc2C(CNC2CCCCC2)C1c1ccc(Cl)cc1Cl)NCCc1ccccc1 (stereo partly drawn) [TRG 2408-72]
pIC50 (MCR-1; [1]): 5.71
pIC50 (MCR-4; [1]): 5.23

NCCNC(CN)CCCN1Cc2ccccc2C(CNC2CCCCC2)C1c1ccc(Cl)cc1Cl (stereo not drawn) [TRG 2408-73]
pIC50 (MCR-1; [1]): 5.97
pIC50 (MCR-4; [1]): 5.39

CNCCNC(CN)CCCN1Cc2ccccc2C(CNC2CCCCC2)C1c1ccc(Cl)cc1Cl (stereo not drawn) [TRG 2408-74]
pIC50 (MCR-1; [1]): 5.81
pIC50 (MCR-4; [1]): 5.37

CNC(CN)CCCN1Cc2ccccc2C(CNC2CCCCC2)C1c1ccc(-c2ccccc2)cc1 (stereo not drawn) [TRG 2408-80]
pIC50 (MCR-1; [1]): 5.66
pIC50 (MCR-4; [1]): 4.91

NCC(N)CCCN1Cc2ccccc2C(CNC2CCCCC2)C1c1ccc(-c2ccccc2)cc1 (stereo not drawn) [TRG 2408-81]
pIC50 (MCR-1; [1]): 5.36
pIC50 (MCR-4; [1]): 4.74

NCC(CCCN1Cc2ccccc2C(CNC2CCCCC2)C1c1ccc(-c2ccccc2)cc1)NCCc1ccccc1 (stereo not drawn) [TRG 2408-82]
pIC50 (MCR-1; [1]): 4.99
pIC50 (MCR-4; [1]): 4.78

NCCNC(CN)CCCN1Cc2ccccc2C(CNC2CCCCC2)C1c1ccc(-c2ccccc2)cc1 (stereo not drawn) [TRG 2408-83]
pIC50 (MCR-1; [1]): 5.75
pIC50 (MCR-4; [1]): 4.96

CNCCNC(CN)CCCN1Cc2ccccc2C(CNC2CCCCC2)C1c1ccc(-c2ccccc2)cc1 (stereo not drawn) [TRG 2408-84]
pIC50 (MCR-1; [1]): 5.60
pIC50 (MCR-4; [1]): 4.81

CCNc1ccc(C2C(CNCc3ccccc3OC)c3ccccc3CN2CCC(CN)NCCN)cc1 (stereo not drawn) [TRG 2408-89]
pIC50 (MCR-1; [1]): 5.74
pIC50 (MCR-4; [1]): 4.66

CCNc1ccc(C2C(CNC3CCCCC3)c3ccccc3CN2CC[C@@H](CN)NC)cc1 (stereo partly drawn) [TRG 2408-90]
pIC50 (MCR-1; [1]): 5.23
pIC50 (MCR-4; [1]): 4.60

CCNc1ccc(C2C(CNC3CCCCC3)c3ccccc3CN2CCC(N)CN)cc1 (stereo not drawn) [TRG 2408-91]
pIC50 (MCR-1; [1]): 5.00
pIC50 (MCR-4; [1]): 4.55

CCNc1ccc(C2C(CNC3CCCCC3)c3ccccc3CN2CCC(CN)NCCc2ccccc2)cc1 (stereo not drawn) [TRG 2408-92]
pIC50 (MCR-1; [1]): 5.35
pIC50 (MCR-4; [1]): 5.81

CCNc1ccc(C2C(CNC3CCCCC3)c3ccccc3CN2CCC(CN)NCCN)cc1 (stereo not drawn) [TRG 2408-93]
pIC50 (MCR-1; [1]): 5.40
pIC50 (MCR-4; [1]): 4.79

CCNc1ccc(C2C(CNC3CCCCC3)c3ccccc3CN2CCC(CN)NCCNC)cc1 (stereo not drawn) [TRG 2408-94]
pIC50 (MCR-1; [1]): 5.41
pIC50 (MCR-4; [1]): 4.57

CNC(CN)CCN1Cc2ccccc2C(CNC2CCCCC2)C1c1ccc(Cl)cc1Cl (stereo not drawn) [TRG 2408-100]
pIC50 (MCR-1; [1]): 5.16
pIC50 (MCR-4; [1]): 5.21

NCC(N)CCN1Cc2ccccc2C(CNC2CCCCC2)C1c1ccc(Cl)cc1Cl (stereo not drawn) [TRG 2408-101]
pIC50 (MCR-1; [1]): 5.10
pIC50 (MCR-4; [1]): 5.25

NCCNC(CN)CCN1Cc2ccccc2C(CNC2CCCCC2)C1c1ccc(Cl)cc1Cl (stereo not drawn) [TRG 2408-103]
pIC50 (MCR-1; [1]): 5.27
pIC50 (MCR-4; [1]): 5.06

CNCCNC(CN)CCN1Cc2ccccc2C(CNC2CCCCC2)C1c1ccc(Cl)cc1Cl (stereo not drawn) [TRG 2408-104]
pIC50 (MCR-1; [1]): 5.25
pIC50 (MCR-4; [1]): 5.04

CNC(CN)CCN1Cc2ccccc2C(CNC2CCCCC2)C1c1ccc(-c2ccccc2)cc1 (stereo not drawn) [TRG 2408-110]
pIC50 (MCR-1; [1]): 5.27
pIC50 (MCR-4; [1]): 5.05

NCC(CCN1Cc2ccccc2C(CNC2CCCCC2)C1c1ccc(-c2ccccc2)cc1)NCCc1ccccc1 (stereo not drawn) [TRG 2408-112]
pIC50 (MCR-1; [1]): 5.06
pIC50 (MCR-4; [1]): 4.98

NCCNC(CN)CCN1Cc2ccccc2C(CNC2CCCCC2)C1c1ccc(-c2ccccc2)cc1 (stereo not drawn) [TRG 2408-113]
pIC50 (MCR-1; [1]): 5.42
pIC50 (MCR-4; [1]): 4.90

CNC(CN)CCCCN1Cc2ccccc2C(CNC2CCCCC2)C1c1ccc(NCc2ccccc2)cc1 (stereo not drawn) [TRG 2409-13]
pIC50 (MCR-1; [2]): 5.94
pIC50 (MCR-4; [3]): 4.76

CNC(CN)CCCCN1Cc2ccccc2C(CNC2CCCCC2)C1c1ccc(NCC2CCCCC2)cc1 (stereo not drawn) [TRG 2409-15]
pIC50 (MCR-1; [2]): 5.78
pIC50 (MCR-4; [3]): 4.79

CNC(CN)CCCCN1Cc2ccccc2C(CNC2CCCCC2)C1c1ccc(NCC(C)C)cc1 (stereo not drawn) [TRG 2409-16]
pIC50 (MCR-1; [2]): 6.02
pIC50 (MCR-4; [3]): 4.68

CNC(CN)CCCCN1Cc2ccccc2C(CNC2CCCCC2)C1c1ccc(NCCOC)cc1 (stereo not drawn) [TRG 2409-17]
pIC50 (MCR-1; [2]): 5.57
pIC50 (MCR-4; [3]): 4.56
